According to the supplement of paper PMC10883282:
± gives the standard deviation of the averaged measurements.

Test system: RD
Test: relative viability vs DMSO control (72 h) (fraction); higher = more viable cells
Method in brief: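 A 5 µM positive control and 0.1% DMSO vehicle ran alongside sarcoma cell lines seeded in 384-well plates to reach 80–90% confluence. Serially diluted compound, 2.5 µl from source plates of 10 mM to 0.0002 mM, was added after 24 h, and the plates were held 72 h at 37 °C, 5% CO2. Relative viability was worked out from ATPLite readings as percent growth averaged over up to triplicate wells. The values were rescaled so that 1 is full and 0 is none.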

SMILES | relative viability (0.00017 µM) | relative viability (0.00051 µM) | relative viability (0.00152 µM) | relative viability (0.00457 µM) | relative viability (0.01372 µM) | relative viability (0.04115 µM) | relative viability (0.1235 µM) | relative viability (0.3704 µM) | relative viability (1.111 µM) | relative viability (3.333 µM) | relative viability (10 µM)
CC(C)N1CCN(Cc2cnc(-c3cc(-c4cccc5[nH]ccc45)cc4[nH]ncc34)o2)CC1 [Nemiralisib] | 0.931 ± 0.024 | 0.951 ± 0.017 | 0.916 ± 0.051 | 0.955 ± 0.025 | 0.941 ± 0.025 | 0.937 ± 0.011 | 0.964 ± 0.016 | 0.902 ± 0.028 | 0.83 ± 0.01 | 0.692 ± 0.053 | 0.128 ± 0.083
Cc1ccc(NC(=O)c2ccc(CN3CCN(C)CC3)cc2)cc1Nc1nc(-c2cccnc2)cs1 [Masitinib] | 0.967 ± 0.042 | 0.962 ± 0.054 | 0.995 ± 0.039 | 1.03 ± 0.091 | 1.01 ± 0.096 | 0.995 ± 0.091 | 0.995 ± 0.1 | 0.976 ± 0.1 | 0.872 ± 0.074 | 0.587 ± 0.05 | 0.13 ± 0.02
CCc1cc2c(cc1N1CCC(N3CCOCC3)CC1)C(C)(C)c1[nH]c3cc(C#N)ccc3c1C2=O [Alectinib] | 1.12 ± 0.056 | 1.09 ± 0.022 | 1.09 ± 0.051 | 1.1 ± 0.044 | 1.11 ± 0.049 | 1.11 ± 0.038 | 1.13 ± 0.045 | 1.11 ± 0.044 | 1.09 ± 0.024 | 1.054 ± 0.0068 | 1.05 ± 0.037
COc1cc2nccc(Oc3ccc(NC(=O)Nc4cc(C)on4)c(Cl)c3)c2cc1OC [Tivozanib] | 1.12 ± 0.07 | 1.12 ± 0.085 | 1.13 ± 0.009 | 1.13 ± 0.068 | 1.135 ± 0.011 | 1.14 ± 0.016 | 1.14 ± 0.05 | 1.18 ± 0.052 | 1.169 ± 0.0077 | 1.17 ± 0.018 | 0.814 ± 0.019
